Data reported in ChEMBL document CHEMBL5550094, “Design, synthesis and anti-necroptosis activity of fused heterocyclic MLKL inhibitors” (Bioorg Med Chem, 2024).
Activity calls are given as the source filed them. The calls are words filed in the database; no cut-off is given here.

Experiments:
[1] = test system: HT-29; experiment: Anti-necroptosis activity against TNFalpha/Smac mimetic/Z-VAD-fmk-induced human HT-29 cells by CellTiter luminescence cell viability assay; format: functional, cell-based
[2] = molecular target: T1, Mixed lineage kinase domain-like protein (Homo sapiens) (UniProt Q8NB16); experiment: Covalent inhibition of MLKL in TNFalpha/Smac mimetic/Z-VAD-fmk-induced human HT-29 cells assessed as inhibition of necroptosis pretreated for 3 hrs followed by washout and further treated with TNFalpha/Smac mimetic/Z-VAD-fmk and measured after 8 hrs by CellTiter luminescence cell viability assay; format: cell-based
T1 sequence (whole entry): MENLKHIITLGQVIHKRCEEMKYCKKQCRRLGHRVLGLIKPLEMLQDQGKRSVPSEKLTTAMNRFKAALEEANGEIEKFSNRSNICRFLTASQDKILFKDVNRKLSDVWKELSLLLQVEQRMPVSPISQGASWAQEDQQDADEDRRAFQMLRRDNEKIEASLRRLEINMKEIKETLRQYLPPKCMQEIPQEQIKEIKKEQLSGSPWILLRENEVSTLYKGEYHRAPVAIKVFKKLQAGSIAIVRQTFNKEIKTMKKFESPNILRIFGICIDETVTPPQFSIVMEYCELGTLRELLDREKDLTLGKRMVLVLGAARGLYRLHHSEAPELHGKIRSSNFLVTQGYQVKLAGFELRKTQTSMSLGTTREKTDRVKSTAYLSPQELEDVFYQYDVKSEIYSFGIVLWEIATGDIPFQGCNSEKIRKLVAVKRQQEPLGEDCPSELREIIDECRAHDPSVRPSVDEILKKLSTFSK

[3] = molecular target: T1, Mixed lineage kinase domain-like protein (Homo sapiens); experiment: Covalent inhibition of MLKL in TNFalpha/Smac mimetic/Z-VAD-fmk-induced human HT-29 cells assessed as inhibition of necroptosis pretreated for 1 hrs followed by washout and further treated with TNFalpha/Smac mimetic/Z-VAD-fmk and measured after 8 hrs by CellTiter luminescence cell viability assay; format: cell-based
[4] = molecular target: T1, Mixed lineage kinase domain-like protein (Homo sapiens); experiment: Covalent inhibition of MLKL in TNFalpha/Smac mimetic/Z-VAD-fmk-induced human HT-29 cells assessed as inhibition of necroptosis pretreated for 5 mins followed by washout and further treated with TNFalpha/Smac mimetic/Z-VAD-fmk and measured after 8 hrs by CellTiter luminescence cell viability assay; format: cell-based
[5] = molecular target: T2, Receptor-interacting serine/threonine-protein kinase 3 (Homo sapiens, UniProt Q9Y572); experiment: Inhibition of RIPK3 phosphorylation in TNFalpha/Smac mimetic/Z-VAD-fmk-induced human HT-29 cells at 2 uM measured after 6 hrs by Western blot analysis; format: cell-based
Target sequence in this assay (Q9Y572 whole entry, looked up, the tested form may be a part): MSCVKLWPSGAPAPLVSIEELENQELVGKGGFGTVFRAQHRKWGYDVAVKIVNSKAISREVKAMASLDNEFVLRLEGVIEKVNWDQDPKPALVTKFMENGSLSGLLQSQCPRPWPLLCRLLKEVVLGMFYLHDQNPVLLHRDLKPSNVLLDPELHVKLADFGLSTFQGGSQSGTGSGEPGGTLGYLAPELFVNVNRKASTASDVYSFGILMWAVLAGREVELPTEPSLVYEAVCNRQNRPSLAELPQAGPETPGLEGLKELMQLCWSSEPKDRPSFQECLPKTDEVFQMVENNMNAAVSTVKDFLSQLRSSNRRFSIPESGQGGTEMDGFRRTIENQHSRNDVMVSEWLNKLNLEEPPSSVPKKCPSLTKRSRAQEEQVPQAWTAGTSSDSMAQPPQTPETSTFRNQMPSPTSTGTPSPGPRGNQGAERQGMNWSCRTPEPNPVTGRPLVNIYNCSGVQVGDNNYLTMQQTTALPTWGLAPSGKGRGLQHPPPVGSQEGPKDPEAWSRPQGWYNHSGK

[6] = molecular target: T1, Mixed lineage kinase domain-like protein (Homo sapiens); experiment: Inhibition of MLKL phosphorylation in TNFalpha/Smac mimetic/Z-VAD-fmk-induced human HT-29 cells at 2 uM measured after 6 hrs by Western blot analysis; format: cell-based
[7] = test system: L929; experiment: Anti-necroptosis activity against TNF-alpha/Z-VAD-FMK induced mouse L929 cells at 20 uM; format: functional, cell-based
[8] = test system: HT-29; experiment: Anti-necroptosis activity against TNFalpha/Smac mimetic/Z-VAD-fmk-induced human HT-29 cells measured after 24 hrs by CellTiter-Glo assay; format: functional, cell-based; conditions: HT-29, 24 h
[9] = molecular target: T3, Receptor-interacting serine/threonine-protein kinase 1 (Homo sapiens, UniProt Q13546); experiment: Binding affinity to RIPK1 (unknown origin) assessed as dissociation constant by displacement assay
T3 sequence (Q13546 whole entry): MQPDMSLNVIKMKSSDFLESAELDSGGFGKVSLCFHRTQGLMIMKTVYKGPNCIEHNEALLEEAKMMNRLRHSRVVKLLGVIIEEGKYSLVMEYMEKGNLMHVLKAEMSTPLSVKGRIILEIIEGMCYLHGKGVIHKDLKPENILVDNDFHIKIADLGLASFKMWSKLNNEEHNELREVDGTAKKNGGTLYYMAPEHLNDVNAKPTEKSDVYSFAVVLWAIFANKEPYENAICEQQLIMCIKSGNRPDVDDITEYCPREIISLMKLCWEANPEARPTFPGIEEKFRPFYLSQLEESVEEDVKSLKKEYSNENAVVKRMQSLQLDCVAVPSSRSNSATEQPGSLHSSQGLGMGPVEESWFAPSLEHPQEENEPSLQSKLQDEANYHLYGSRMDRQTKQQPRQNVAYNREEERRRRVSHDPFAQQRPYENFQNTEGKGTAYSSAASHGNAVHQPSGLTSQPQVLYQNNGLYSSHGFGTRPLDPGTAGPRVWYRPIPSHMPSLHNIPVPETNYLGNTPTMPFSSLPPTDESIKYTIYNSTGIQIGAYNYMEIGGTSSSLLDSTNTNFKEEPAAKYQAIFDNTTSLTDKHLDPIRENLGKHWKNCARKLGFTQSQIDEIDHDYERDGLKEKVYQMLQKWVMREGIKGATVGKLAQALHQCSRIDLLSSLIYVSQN

[10] = molecular target: T2, Receptor-interacting serine/threonine-protein kinase 3; experiment: Binding affinity to RIPK3 (unknown origin) assessed as dissociation constant by displacement assay
Target sequence in this assay (Q9Y572 whole entry, the tested form may be a part): as the sequence (Q9Y572 whole entry, looked up, the tested form may be a part) above

[11] = Anti-necroptosis activity against TNF-alpha induced human Jurkat-FADD-/- cells pretreated for 30 mins followed by TNF-alpha addition and further incubated overnight by CellTiter-Glo 2.0 assay; format: functional, cell-based

O=C(/C=C/c1ccc([N+](=O)[O-])s1)Nc1ccc(S(=O)(=O)Nc2nc3ccc(OC(F)(F)F)cc3s2)cc1
EC50 [1]: > 20000 nM

O=C(/C=C/c1ccc([N+](=O)[O-])s1)Nc1ccc(S(=O)(=O)Nc2ncc3ccccc3n2)cc1
EC50 [1]: 148 nM
inhibition [2]: Active
inhibition [3]: Active
inhibition [4]: inactive
inhibition [5]: inactive
inhibition [6]: inactive
Activity [7]: inactive

Cn1c(NS(=O)(=O)c2ccc(NC(=O)/C=C/c3ccc([N+](=O)[O-])s3)cc2)nc2ccccc21
EC50 [1]: 478 nM

O=C(/C=C/c1ccc([N+](=O)[O-])s1)Nc1ccc(S(=O)(=O)Nc2cnc3ccccc3c2)cc1
EC50 [1]: 406 nM

O=C(/C=C/c1ccc([N+](=O)[O-])s1)Nc1ccc(S(=O)(=O)Nc2nc3c(Br)cccc3s2)cc1
EC50 [1]: 7350 nM

O=C(/C=C/c1ccc([N+](=O)[O-])s1)Nc1ccc(S(=O)(=O)Nc2ccnc3ccccc23)cc1
EC50 [1]: 579 nM

COc1cccc2sc(NS(=O)(=O)c3ccc(NC(=O)/C=C/c4ccc([N+](=O)[O-])s4)cc3)nc12
EC50 [1]: 596 nM
inhibition [2]: Active
inhibition [3]: Active
inhibition [4]: inactive
inhibition [5]: inactive
inhibition [6]: inactive
Activity [7]: inactive

Cc1cccc2sc(NS(=O)(=O)c3ccc(NC(=O)/C=C/c4ccc([N+](=O)[O-])s4)cc3)nc12
EC50 [1]: 2750 nM

O=C(/C=C/c1ccc([N+](=O)[O-])s1)Nc1ccc(S(=O)(=O)Nc2ccc3nccnc3c2)cc1
EC50 [1]: 480 nM

O=C(/C=C/c1ccc([N+](=O)[O-])s1)Nc1ccc(S(=O)(=O)Nc2cc3ccccc3cn2)cc1
EC50 [1]: 621 nM

O=C(/C=C/c1ccc([N+](=O)[O-])s1)Nc1ccc(S(=O)(=O)Nc2ccc3ccccc3n2)cc1
EC50 [1]: 329 nM

O=C(/C=C/c1ccc([N+](=O)[O-])s1)Nc1ccc(S(=O)(=O)Nc2nc3cc(Cl)ccc3s2)cc1
EC50 [1]: 16200 nM

O=C(/C=C/c1ccc([N+](=O)[O-])s1)Nc1ccc(S(=O)(=O)Nc2nc3ccc(F)cc3s2)cc1
EC50 [1]: 5150 nM

O=C(/C=C/c1ccc([N+](=O)[O-])s1)Nc1ccc(S(=O)(=O)Nc2nc3ccccc3s2)cc1
EC50 [1]: 1510 nM

O=C(/C=C/c1ccc([N+](=O)[O-])s1)Nc1ccc(S(=O)(=O)Nc2ncnc3ccccc23)cc1
EC50 [1]: 526 nM

COc1nccnc1NS(=O)(=O)c1ccc(NC(=O)/C=C/c2ccc([N+](=O)[O-])s2)cc1
EC50 [8]: 447 nM
inhibition [5]: inactive
inhibition [6]: inactive

O=C(/C=C/c1ccc([N+](=O)[O-])s1)Nc1ccc(S(=O)(=O)Nc2nc3c(F)cccc3s2)cc1
EC50 [1]: 7460 nM

COc1nccnc1NS(=O)(=O)c1ccc(NC(=O)/C=C/c2cccs2)cc1
EC50 [8]: > 20000 nM

O=C(/C=C/c1ccc([N+](=O)[O-])s1)Nc1ccc(S(=O)(=O)Nc2nc3ccccc3o2)cc1
EC50 [1]: 1570 nM

Nc1nccnc1C(=O)O[C@@H](C(=O)Nc1ccc(F)cc1)c1ccccc1
Kd [9]: > 30000 nM
Kd [10]: > 30000 nM
IC50 [11]: > 40000 nM

COc1nccnc1NS(=O)(=O)c1ccc(NC(=O)CCc2ccc([N+](=O)[O-])s2)cc1
EC50 [8]: > 20000 nM

O=C(/C=C/c1ccc([N+](=O)[O-])s1)Nc1ccc(S(=O)(=O)Nc2nc3cc(F)ccc3s2)cc1
EC50 [1]: 6750 nM

O=C(/C=C/c1ccc([N+](=O)[O-])s1)Nc1ccc(S(=O)(=O)Nc2nc3ccc(C(F)(F)F)cc3s2)cc1
EC50 [1]: > 20000 nM

O=C(/C=C/c1ccc([N+](=O)[O-])s1)Nc1ccc(S(=O)(=O)Nc2nc3ccc(Cl)cc3s2)cc1
EC50 [1]: 13800 nM

COc1ccc2nc(NS(=O)(=O)c3ccc(NC(=O)/C=C/c4ccc([N+](=O)[O-])s4)cc3)sc2c1
EC50 [1]: 5080 nM

O=C(/C=C/c1ccc([N+](=O)[O-])s1)Nc1ccc(S(=O)(=O)Nc2cncc3ccccc23)cc1
EC50 [1]: 427 nM

O=C(/C=C/c1ccc([N+](=O)[O-])s1)Nc1ccc(S(=O)(=O)Nc2nc3ccc(Br)cc3s2)cc1
EC50 [1]: > 20000 nM

O=C(/C=C/c1ccc([N+](=O)[O-])s1)Nc1ccc(S(=O)(=O)Nc2cnc3ccccc3n2)cc1
EC50 [1]: 384 nM

Cc1ccc2nc(NS(=O)(=O)c3ccc(NC(=O)/C=C/c4ccc([N+](=O)[O-])s4)cc3)sc2c1
EC50 [1]: 2910 nM

COc1nccnc1NS(=O)(=O)c1ccc(NC(=O)/C=C/c2ccc([N+](=O)[O-])o2)cc1
EC50 [1]: 6410 nM

COc1nccnc1NS(=O)(=O)c1ccc(NC(=O)CCc2cccs2)cc1
EC50 [8]: > 20000 nM

Cc1ccc2sc(NS(=O)(=O)c3ccc(NC(=O)/C=C/c4ccc([N+](=O)[O-])s4)cc3)nc2c1
EC50 [1]: 2580 nM

O=C(/C=C/c1ccc([N+](=O)[O-])s1)Nc1ccc(S(=O)(=O)Nc2nc3cc(Br)ccc3s2)cc1
EC50 [1]: > 20000 nM

O=C(/C=C/c1ccc([N+](=O)[O-])s1)Nc1ccc(S(=O)(=O)Nc2nccc3ccccc23)cc1
EC50 [1]: 734 nM

O=C(/C=C/c1ccc([N+](=O)[O-])s1)Nc1ccc(S(=O)(=O)Nc2nc3c(Cl)cccc3s2)cc1
EC50 [1]: 6230 nM

COc1ccc2sc(NS(=O)(=O)c3ccc(NC(=O)/C=C/c4ccc([N+](=O)[O-])s4)cc3)nc2c1
EC50 [1]: 7030 nM

C[C@@H](Oc1cc(-c2cnn(C3CCNCC3)c2)cnc1N)c1c(Cl)ccc(F)c1Cl [CRIZOTINIB]
IC50 [11]: > 40000 nM
